The record followed here is article PMC9180926, “Discovery of Novel 3-Hydroxyquinazoline-2,4(1H,3H)-Dione Derivatives: A Series of Metal Ion Chelators with Potent Anti-HCV Activities” (International Journal of Molecular Sciences, 2022).

The data set is described as follows: Metal ion chelation assay using UV-Vis spectrophotometry. The data set is classed as physicochemical. The text has this:
The chelation rules of the 3-hydroxyquinazoline-2,4(1H,3H)-diones with magnesium ions were explored by UV-Vis spectrophotometry, which was widely used to study the binding properties of compounds with metal ions in vitro [56, 57, 58]. For the sake of eliminating the interference of heteroaryl groups on the determination of metal ion chelation, the representative compound 21e with phenyl group substituted at the C-7 position was selected to study its chelation ability with Mg^2+ under different conditions. […] This is probably because compound 21e mainly exists in the free molecular state with the N-hydroxyl group protonated in methanol, which is difficult to chelate with Mg^2+. Intriguingly, after the introduction of 5 mm NaOAc to the methanol solution containing 21e, the effect of MgCl2 on the absorbance of the system totally changed (Figure 5B). […] Remarkably, merely 20 μM MgCl2 was able to increase the absorbance by more than 0.5. […] A reasonable logic is that the addition of NaOAc raised the pH of the methanol solution, resulting in partial ionization of compound 21e at the N-hydroxyl group. Subsequently, 21e in the ionic state formed a chelation complex with Mg^2+, which increased the absorbance of the solution.
With the aim of verifying whether 21e has the ability to chelate with Mg^2+ in the ionic state, we further investigated the influence of various concentrations of NaOAc on the differential UV-Vis spectra caused by the addition of MgCl2. […] Moreover, the magnitude of the variation in the spectrum is proportional to the concentration of NaOAc. […] The comparison between different UV-Vis spectra also verified that compound 21e could chelate with Mg^2+ in the N-hydroxyl deprotonated form rather than the free molecular state.
2 mL of methanol solution containing the components in the sample or control group (Table 4) was added to a quartz cuvette (BQ-114-2, Chongqing Xinweier Glass Co., Ltd., Chongqing, China). The absorbance at 200–400 nm was scanned by a UV-Vis spectrophotometer (Agilent Cary 60, Agilent Technologies, Santa Clara, CA, USA), and the blank methanol was used for baseline calibration. The absorbance of the control group was subtracted from that of the sample group at the corresponding wavelength to obtain the differential UV-Vis spectra, which were used to analyze the chelating property of the compound with Mg^2+.

On to `O=c1[nH]c2cc(-c3ccccc3)ccc2c(=O)n1O` [21e, 3-Hydroxy-7-phenylquinazoline-2,4(1H,3H)-dione], for which, under “50 μM compound in methanol, no NaOAc, MgCl2 up to 640 μM”, the “absorbance difference at 254 nm between control group and sample group” value was “no more than 0.1”. Besides, the “increase of absorbance at 254 nm” value is, setting by setting: (50 μM compound, 80 μM MgCl2, 200 μM to 5 mm NaOAc in methanol) 0.8–1.2; (50 μM compound, 5 mm NaOAc in methanol, 20 μM MgCl2) “more than 0.5”. Besides, the “Mg^2+ concentration at which absorbance change reaches equilibrium” value (50 μM compound, 5 mm NaOAc in methanol, 254 nm) is recorded as “about 400 μM”.
